For test [1], the system named is PAXF1657 KO Clone #4. As to the kind of experiment: 7-day cellular proliferation assay (CellTiter-Glo), PAXF1657 KO Clone #4. In kind it is cell-based. Conditions: 168 h, 7-day, read-out: 7-day proliferation assay: IC50 GeoMean (uM) [Cell Line: PAXF1657 KO Clone #4]. The essentials:
(§1)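 Cells plated at 500 per well and attached overnight. Next, 10-point inhibitor series added (30 μM-0.0002 μM, 0.3% DMSO) and a day-0 viability plate read. Then, after 3 days, medium with fresh compound. Finally, viability after 4 more days via CellTiter-Glo.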
Background: ATP-based viability assays read luminescence as a measure of living cells.

In test [2] the test system is PAXF1657 EV. The test is described as follows: 7-day cellular proliferation assay (CellTiter-Glo), PAXF1657 EV. Particulars: 168 h, 7-day, read-out: 7-day proliferation assay: IC50 GeoMean (uM) [Cell Line: PAXF1657 EV]. In kind it is cell-based. An outline of the steps: as §1
For test [3], the target named is T1, GRK2 (Homo sapiens, UniProt P25098).
T1 sequence (P25098 1-689): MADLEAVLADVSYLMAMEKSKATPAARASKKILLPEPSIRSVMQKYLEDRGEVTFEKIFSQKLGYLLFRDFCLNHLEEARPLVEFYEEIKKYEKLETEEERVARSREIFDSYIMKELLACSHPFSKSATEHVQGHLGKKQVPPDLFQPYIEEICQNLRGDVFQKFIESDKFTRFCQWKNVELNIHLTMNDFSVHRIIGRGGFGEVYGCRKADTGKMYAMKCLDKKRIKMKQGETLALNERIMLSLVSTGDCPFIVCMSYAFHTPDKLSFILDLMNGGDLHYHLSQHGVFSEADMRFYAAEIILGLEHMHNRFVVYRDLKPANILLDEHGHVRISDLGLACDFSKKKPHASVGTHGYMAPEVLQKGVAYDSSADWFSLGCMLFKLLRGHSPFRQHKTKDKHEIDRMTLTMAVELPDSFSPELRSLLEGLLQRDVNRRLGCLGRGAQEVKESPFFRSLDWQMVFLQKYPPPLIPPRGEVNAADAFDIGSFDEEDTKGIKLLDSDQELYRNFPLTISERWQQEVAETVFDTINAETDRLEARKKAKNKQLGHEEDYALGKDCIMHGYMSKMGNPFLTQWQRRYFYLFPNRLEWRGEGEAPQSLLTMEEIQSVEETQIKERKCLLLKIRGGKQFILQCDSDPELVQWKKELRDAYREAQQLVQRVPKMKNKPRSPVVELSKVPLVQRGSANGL
The test is described as follows: GRK2 Degradation Assay and Western Blot in PAXF1657 cells. The class given is cell-based. On the set-up: endogenous in cells; host or cells: PAXF1657. Conditions: for % GRK2 degradation at 0.03 uM in PAXF1657 EV (24 hrs) / % GRK2 degradation at 0.1 uM in PAXF1657 EV (24 hrs) / inhibition at 0.3 µM / inhibition at 1 µM / inhibition at 3 µM / % GRK2 degradation at 10 uM in PAXF1657 EV (24 hrs): PAXF1657 EV, 24 hrs; for inhibition at 0.3 µM: read-out: % GRK2 degradation at 0.3 uM in PAXF1657 EV (24 hrs); for inhibition at 1 µM: read-out: % GRK2 degradation at 1 uM in PAXF1657 EV (24 hrs); for inhibition at 3 µM: read-out: % GRK2 degradation at 3 uM in PAXF1657 EV (24 hrs); for GRK2 degradation, dose dependence (FIGS. 1A-1D): 24-hour treatment in PAXF1657 cells. The essentials:
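GRK2 degradation judged by immunoblot: NP40 lysates separated by SDS-PAGE and probed for GRK2 and β-actin, with HRP/ECL detection. Lysates came from PAXF1657 cells exposed to 0–10 μM compound for 6–24 h after reaching 70% confluency.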
(In general: In western blotting, separated proteins are transferred to a membrane and probed.)

Test [4] addresses T1, GRK2. As to the kind of experiment: GRK2 Inhibition Assay (TR-FRET, Example 1). In kind it is biochemical. Particulars: TR-FRET, 7 μM ATP; read-out: Enzymatic GRK2 Assay: IC50 (nM) (Example 1). The procedure: Assay: GRK2 enzyme (1 nM final concentration) was diluted in 25 mM HEPES, 10 mM MgCl2, 2 mM DTT, 0.01% Tween-20, and 1 mM EGTA. Then the GRK2 mixture was added into ProxiPlate-384 white plate and pre-incubated for 30 min with test compounds at room temperature. ATP (7 μM final concentration) and Ulight TopoIIα (50 nM final concentration) were added into the assay plate to initiate the reaction and the mixture was incubated at room temperature for 90 min. Then, Eu anti-TopoIIα (0.12 nM final concentration), BSA (0.01% final concentration), and EDTA (11 mM final concentration) in LANCE assay buffer were added into each well. After 60 min incubation time at room temperature, TR-FRET signal was measured by EnVision plate reader.
For orientation: In TR-FRET formats the signal depends on donor and acceptor labels being close together.

For the compound `Cn1c(CNc2cccc(C(=O)NCc3cc(OCCCCCCOCCOCCOCCCCCC(=O)Nc4cccc5c4CN(C4CCC(=O)NC4=O)C5=O)ccc3F)c2)nnc1-c1ccncn1` (centres unmarked) [Compound D66, N-(5-((6-(2-(2-((6-((2-(2,6-dioxopiperidin-3-yl)-1-oxoisoindolin-4-yl)amino)-6-oxohexyl)oxy)ethoxy)ethoxy)hexyl)oxy)-2-fluorobenzyl)-3-(((4-methyl-5-(pyrimidin-4-yl)-4H-1,2,4-triazol-3-yl)methyl)amino)benzamide], the IC50 in test [1] is over 10 µM. Besides, in test [2], the IC50 was over 10 µM. In test [3], the “% GRK2 degradation at 0.03 uM in PAXF1657 EV (24 hrs)” value (“% GRK2 degradation at 0.03 uM” for short) came to 8%, the “% GRK2 degradation at 0.1 uM in PAXF1657 EV (24 hrs)” value (from here on “% GRK2 degradation at 0.1 uM”) was 8%, the inhibition at 0.3 µM came to 40% and the inhibition at 1 µM stood at 55%. In test [3], the inhibition at 3 µM was found to be 71%; the “% GRK2 degradation at 10 uM in PAXF1657 EV (24 hrs)” value (“% GRK2 degradation at 10 uM” for short) amounted to 58%; the “GRK2 degradation, dose dependence (FIGS. 1A-1D)” value was “Dose dependent”. The IC50 in test [4] is under 100 nM.
Turning to `CC(NC(=O)c1cccc(NCc2nnc(-c3ccncn3)n2C)c1)c1cccc(OCCCCCCOCCOCCOCCCCCC(=O)Nc2cccc3c2CN(C2CCC(=O)NC2=O)C3=O)c1` (centres unmarked) [Compound D67, N-(1-(3-((6-(2-(2-((6-((2-(2,6-dioxopiperidin-3-yl)-1-oxoisoindolin-4-yl)amino)-6-oxohexyl)oxy)ethoxy)ethoxy)hexyl)oxy)phenyl)ethyl)-3-(((4-methyl-5-(pyrimidin-4-yl)-4H-1,2,4-triazol-3-yl)methyl)amino)benzamide], the IC50 in test [1] is over 10 µM. For the same compound, the IC50 in test [2] was in the range of 1 to 10 µM. Also, in test [3], the “% GRK2 degradation at 0.03 uM” value turned out to be 38%, the “% GRK2 degradation at 0.1 uM” value stood at 60%, the inhibition at 0.3 µM is 74% and the inhibition at 1 µM amounted to 87%. In test [3], the inhibition at 3 µM is 90%; the “% GRK2 degradation at 10 uM” value came out at 83%; the “GRK2 degradation, dose dependence (FIGS. 1A-1D)” value was “Dose dependent”. Besides, the IC50 in test [4] was under 100 nM.
Turning to `Cc1ncsc1-c1ccc(CNC(=O)[C@@H]2C[C@@H](O)CN2C(=O)[C@@H](NC(=O)CCCCCOCCOCCOCCCCCCOc2cccc([C@H](C)NC(=O)c3cccc(NCc4nnc(-c5ccncn5)n4C)c3)c2)C(C)(C)C)cc1` [Compound D78, (2S,4R)-1-((S)-2-(tert-butyl)-22-(3-((S)-1-(3-(((4-methyl-5-(pyrimidin-4-yl)-4H-1,2,4-triazol-3-yl)methyl)amino)benzamido)ethyl)phenoxy)-4-oxo-10,13,16-trioxa-3-azadocosan-1-oyl)-4-hydroxy-N-(4-(4-methylthiazol-5-yl)benzyl)pyrrolidine-2-carboxamide], the values for the IC50 in test [1], in test [2] and in test [4] were 1 to 10 µM, under 1 µM and under 100 nM, respectively. Besides, the inhibition at 0.3 µM in test [3] was -12%. Further, the inhibition at 1 µM in test [3] is -21%. Also, in test [3], the inhibition at 3 µM is -18%.
As to `Cc1ncsc1-c1ccc(CNC(=O)[C@@H]2C[C@@H](O)CN2C(=O)[C@@H](NC(=O)CCCCCOCCOCCOCCCCCCOc2cccc([C@@H](C)NC(=O)c3cccc(NCc4nnc(-c5ccncn5)n4C)c3)c2)C(C)(C)C)cc1` [Compound D79, (2S,4R)-1-((S)-2-(tert-butyl)-22-(3-((R)-1-(3-(((4-methyl-5-(pyrimidin-4-yl)-4H-1,2,4-triazol-3-yl)methyl)amino)benzamido)ethyl)phenoxy)-4-oxo-10,13,16-trioxa-3-azadocosan-1-oyl)-4-hydroxy-N-(4-(4-methylthiazol-5-yl)benzyl)pyrrolidine-2-carboxamide], in test [1], the IC50 was over 10 µM. The IC50 in test [2] was under 1 µM. Further, in test [3], the inhibition at 0.3 µM stood at 52%, the inhibition at 1 µM came to 54% and the inhibition at 3 µM stood at 8%. In addition, the IC50 in test [4] is under 100 nM.
Turning to `Cc1ncsc1-c1ccc(CNC(=O)[C@@H]2C[C@@H](O)CN2C(=O)[C@@H](NC(=O)CCCCc2cn(CCCCCOc3cccc(CNC(=O)c4cccc(NCc5nnc(-c6ccncn6)n5C)c4)c3)nn2)C(C)(C)C)cc1` [Compound D80], in test [1], the IC50 was over 10 µM. The IC50 in test [2] was over 10 µM. In test [3], the inhibition at 0.3 µM was 6%, the inhibition at 1 µM was 0% and the inhibition at 3 µM is 23%. For the same compound, in test [4], the IC50 was under 100 nM.
Take `Cc1ncsc1-c1ccc(CNC(=O)[C@@H]2C[C@@H](O)CN2C(=O)[C@@H](NC(=O)CCCc2cn(CCCCCCOc3cccc(CNC(=O)c4cccc(NCc5nnc(-c6ccncn6)n5C)c4)c3)nn2)C(C)(C)C)cc1` [Compound D86]: the IC50 in test [1] is over 10 µM; in test [2], over 10 µM; in test [4], under 100 nM. The inhibition at 1 µM in test [3] is 16%. Besides, the inhibition at 3 µM in test [3] was 24%.
Regarding `Cc1ncsc1-c1ccc(CNC(=O)[C@@H]2C[C@@H](O)CN2C(=O)[C@@H](NC(=O)CCCCCOCCOCCOCCCCCCOc2ccc(CNC(=O)c3cccc(NCc4nnc(-c5ccncn5)n4C)c3)cc2)C(C)(C)C)cc1` [Compound D87], the IC50 in test [1] was over 10 µM; in test [2], 1 to 10 µM; in test [4], under 100 nM. Further, the inhibition at 1 µM in test [3] was determined as 23%. Moreover, in test [3], the inhibition at 3 µM worked out at 18%.
For `Cc1ncsc1-c1ccc([C@H](C)NC(=O)[C@@H]2C[C@@H](O)CN2C(=O)[C@@H](NC(=O)CCCCCOCCOCCOCCCCCCOc2cccc(CNC(=O)c3cccc(NCc4nnc(-c5ccncn5)n4C)c3)c2)C(C)(C)C)cc1` [Compound D90] the same measures were over 10 µM, 1 to 10 µM, under 100 nM, 23% and 20%.
Regarding `Cc1ncsc1-c1ccc(CNC(=O)[C@@H]2C[C@@H](O)CN2C(=O)[C@@H](NC(=O)CCCCCOCCOCCOCCCCCCOc2cccc(C(C)NC(=O)c3cccc(NCc4nnc(-c5ccncn5)n4C)c3)c2)C(C)(C)C)cc1` (stereo partly drawn) [Compound D91, (2S,4R)-1-((2S)-2-(tert-butyl)-22-(3-(1-(3-(((4-methyl-5-(pyrimidin-4-yl)-4H-1,2,4-triazol-3-yl)methyl)amino)benzamido)ethyl)phenoxy)-4-oxo-10,13,16-trioxa-3-azadocosan-1-oyl)-4-hydroxy-N-(4-(4-methylthiazol-5-yl)benzyl)pyrrolidine-2-carboxamide], the IC50 in test [1] lay in the range of 1 to 10 µM. Moreover, in test [2], the IC50 is under 1 µM. In test [3], the “% GRK2 degradation at 0.03 uM” value stood at 37%, the “% GRK2 degradation at 0.1 uM” value stood at 28%, the inhibition at 0.3 µM is 42% and the inhibition at 1 µM worked out at 51%. In test [3], the inhibition at 3 µM is 16% and the “% GRK2 degradation at 10 uM” value was −4%. Further, the IC50 in test [4] is under 100 nM.

The record behind these values is patent US20240174637A1, “DEGRADERS OF GRK2 AND USES THEREOF” (Sonata Therapeutics, Inc., priority 2021, published 2024).
